The test system of series [1] is 3 dpf zebrafish eleuthero-embryos. As to the kind of experiment: Whole-body fluorescence quantification and 1-compartment PK modelling. Type of series: in vivo, Danio rerio. Conditions: for ke (total elimination rate constant): 1-compartment model fitted to all routes (immersion 10 µM, PC/IP 2 mg/kg, combination), 0-48 h; for Q (passive exchange with the medium) / t1/2 (elimination half-life, ln(2)/ke): 1-compartment model, zebrafish eleuthero-embryo; for Comparison of passive exchange with the medium (Q) among compounds: ranking in words. An excerpt: We then quantified the relative amount of compound present in the zebrafish eleuthero-embryos by assessing the integrated fluorescence intensity of delineated whole-body contours present in the fluorescence images (Figs. 1, 2, 3, 4, 5, 6, 7).
The total measured fluorescence was proportional to total amount of compound present in the animal, as described by Eq. (1). RFUT denotes the sum of fluorescence intensity in the overall image, A denotes the amount of drug in the zebrafish, and FLUOR is a constant denoting the compound-specific fluorescence quantum yield.1 RFUT=FLUOR∗A
Simplifying by substitution of ke=Q+CL/V :3 dA/dt=-ke∗A+QM
Next, data fitting was performed with the following mathematical model:4 At=Dose∗e^-ket+MQ/ke(1-e^-ket) with Dose the injected dose (mg/kg), M the concentration in the medium (mg/L), Q the passive exchange with the medium (L/h) and ke the total elimination rate constant (h^−1). When administering the compound through immersion, the injected dose is 0 mg/kg. When injecting the compound, the concentration in medium is 0. This model was fitted to all available data using non-linear regression in R version 4.0.3.
Residual error plots were used to identify observations with poor fit.
The designed model was optimized by a non-linear least squares modelling, using Gauss–Newton algorithms under the method of iterative fashion, with R version 4.0.3, using stats::nls[50].

The test system is the same in series [2]. As to the kind of experiment: Spatiotemporal fluorescence imaging after immersion, microinjection (PC, IP, IY) or combination. It is filed as in vivo, Danio rerio. As to the method:
We then determined the spatiotemporal distribution of the fluorescent compounds. The eleuthero-embryos were exposed to the dyes by immersion or microinjection in the pericardial cavity (PC), intraperitoneally (IP) and in the yolk sac (IY) for 48 h starting from 3 dpf on, i.e. after hatching, thus avoiding the presence of the chorion that has been reported as a potential barrier for the absorption of compounds[21],[27].
At specific time periods after treatment, the eleuthero-embryos were immobilized by hypothermia and fluorescent microscope pictures were taken.
3 dpf zebrafish eleuthero-embryos wildtype AB (n = 10 per compound) randomly selected were immersed using 6-well-plates (5 mL per well) of Danieau’s medium with a final DMSO concentration of 0.1% (v/v), containing the compounds at a concentration of 10 µM. Vehicle-treated control eleuthero-embryos were exposed to Danieau’s medium supplemented with 0.1% v/v DMSO.
3 dpf zebrafish eleuthero-embryos wildtype AB (n = 10 per compound) randomly selected were immobilized by cooling to 4 °C and positioned on 1% (w/v) agarose plates at room temperature. All compounds were microinjected using glass needles fitted to a micromanipulator (MM-33) connected to a gas pressure microinjector (Eppendorf Femtojet set - AG 22331 Hamburg). Glass capillaries (W/FIL 1.0MM 4 in TW 100F-4) were pulled (Sutter Instrument CO. Model P-87 Cat N B100-58-15 Filament: FB330B – FB320B) by using program 5 (Heat 829, Pull 158, Vel 100, Time 150). Needles were filled with compounds dissolved in vehicle (DMSO/saline (1:1)). Microinjections were performed into the pericardial cavity (PC)[47], into the yolk sac (IY)[35], or into the peritoneal cavity (IP) at a volume of 1 nL and a dose of 2 mg/kg. For the intraperitoneal microinjection, the eleuthero-embryos were positioned in lateral right recumbence under a dissecting microscope. By using a micromanipulator, the needle was inserted posteriorly and ventrolateral to the swim bladder in the peritoneal cavity. Afterwards the eleuthero-embryos were transferred to 6-well plates. Control eleuthero-embryos were exposed to vehicle only.
3 dpf zebrafish eleuthero-embryos wildtype AB (n = 10 per compound) randomly selected were immobilized and positioned on 1% (w/v) agarose plates. All compounds were microinjected using glass needles, as previously described into the PC cavity. Afterwards, the larvae were selected and transferred to a 6-well-plate, into its corresponding compound at 10 µM.
The thus-treated eleuthero-embryos were kept in the incubator at 28.5 °C (in darkness) and taken out shortly at defined time points (15’, 1 h, 3 h, 6 h, 24 h and 48 h) for image analysis.
Eleuthero-embryos were immobilized by hypothermia, rinsed three times with Danieau’s medium, and positioned latero-lateral (right lateral recumbency) in a drop of agarose (0.1%). To acquire images, a Leica MZ10F fluorescent stereomicroscope with a 4.0 × planapochromatic objective (10447243) was used, equipped with a Digital Color Camera Leica DFC310 FX (Software LAS 4.13). Filter sets were GFP 10446222 in case of compound FAMA, dSRED 10447079 in case of S-CY3A, CY3A and TAMRA, and CY5 10446366 in case of S-CY5.5A and S-CY5A. After manual delineation of the whole body (WB) contours of the zebrafish eleuthero-embryos using MetaMorph (Microscopy Automation & Image Analysis Software V.7.8.00), the fluorescence in the selected area was quantified as integrated fluorescence intensity (RFU) that adds up all fluorescence intensity values of the individual pixels. In case of the combination treatment the same correction factor for exposure time from the camera setting was applied in the case of FAMA and TAMRA, to avoid saturation of the images (Supplementary information. Figure S1)[48]. The selected images shown in the Figs. 1, 2, 3, 4, 5, 6 and 7 were arranged using MS PowerPoint (Microsoft Corporation, Seattle, USA) and the open-source GIMP (version 2.10.24 www.gimp.org 2021) software. […]

Series [3] can be described thus: Experimental lipophilicity (LogD), shake-flask method with UHPLC. The note with it: n-octanol / Danieau's solution, 10 µM compound.
Protocol: Briefly, 10 µM of compound was shaken in a mixture of two mobile phases, n-octanol and Danieau’s solution (eleuthero-embryo medium) and analysed with UHPLC.
The lipophilicity of the fluorescent compounds was determined following the EPA guideline OPPTS 830.7550 Partition coefficient (shake flask method)[46] using Danieau’s solution and n-octanol as the two immiscible phases. Analyses were performed using an Agilent Infinity 1290 UHPLC system (Agilent Technologies, Waldbronn, Germany) consisting of an autosampler, quaternary pump and DAD-detector, operated with Open Lab software (version C.01.10, Agilent Technologies). […] All compounds were detected and quantified at 390 nm. For the quantification of the compounds, calibration samples were made in 50:50 ACN:MilliQ water for the compounds analysed in RPLC and 95:5 ACN:MilliQ water for compounds analysed in HILIC. […] The variation (calculated as the relative standard deviation, %RSD) for 3 injections was always below 10% (for all considered concentrations) and R^2 values of the calibration curves were all above 0.998. All calculations concerning the evaluation of the recorded data were made in MS Excel (Microsoft Corporation, Seattle, USA). […]

Here are results for six molecules from paper PMC8190279, “Spatiotemporal imaging and pharmacokinetics of fluorescent compounds in zebrafish eleuthero-embryos after different routes of administration” (Scientific Reports, 2021).

For the molecule `C#CCNC(=O)c1ccc(-c2c3ccc(=[N+](C)C)cc-3oc3cc(N(C)C)ccc23)c(C(=O)[O-])c1` (single isomer, unassigned) [TAMRA, Tamra alkyne 5-isomer], in series [1], the “ke (total elimination rate constant)” value was 0.052 h⁻¹; the “Q (passive exchange with the medium)” value is on record as 1.45 L/h × 10^−9; the “t1/2 (elimination half-life, ln(2)/ke)” value came out at 13.35 h. In addition, the “Intra-fish distribution after pericardial (PC) microinjection” value (from here on “Intra-fish distribution”) in series [2] (PC microinjection 2 mg/kg) is reported as “rapidly distributed to the vasculature”. Also, in series [2] (immersion 10 µM + PC 2 mg/kg, 48 h), the “Level and intra-body fluorescence distribution at 48 h, combination (immersion + PC) compared with PC microinjection” value is given as “altered”. For the same molecule, the “Uptake after immersion (fluorescence imaging)” value in series [2] (immersion 10 µM, 0-48 h from 3 dpf) is “gradually taken up over time”. The LogD in series [3] worked out at 0.46.
As to `C#CCNC(=O)CCCCCN1C(=CC=CC2=[N+](C)c3ccccc3C2(C)C)C(C)(C)c2ccccc21.[Cl-]` [CY3A, Cyanine3 alkyne], in series [1], the “ke (total elimination rate constant)” value is 0.049 h⁻¹; the “Q (passive exchange with the medium)” value is 8.37 L/h × 10^−9; the “t1/2 (elimination half-life, ln(2)/ke)” value is given as 13.92 h; the “Comparison of passive exchange with the medium (Q) among compounds” value is listed as “taken up the fastest”. Also, the “Additional effect of immersion route on intrabody exposure in combination treatment (RC3h)” value in series [1] (3 h exposure, immersion 10 µM + PC 2 mg/kg) is listed as “to a limited degree”. Further, the “Level and intra-body fluorescence distribution at 48 h, combination (immersion + PC) compared with PC microinjection” value in series [2] (in vivo) is “altered”. This molecule showed a LogD in series [3] of 1.73.
Take `C#CCNC(=O)c1ccc2c(c1)C(=O)OC21c2ccc(O)cc2Oc2cc(O)ccc21` [FAMA, FAM alkyne, 5-isomer]: in series [1], the “Q (passive exchange with the medium)” value is reported as 1.71 L/h × 10^−9 and the “t1/2 (elimination half-life, ln(2)/ke)” value is listed as 57.41 h. Further, the “Intra-fish distribution” value in series [2] (in vivo) is reported as “rapidly distributed to the vasculature”.
Take `C#CCNC(=O)CCCCCN1/C(=C/C=C/C=C/C2=[N+](C)c3ccc4c(S(=O)(=O)[O-])cc(S(=O)(=O)[O-])cc4c3C2(C)C)C(C)(C)c2c1ccc1c(S(=O)(=O)[O-])cc(S(=O)(=O)[O-])cc21.[K+].[K+].[K+]` [S-CY5.5A, Sulfo-cyanine 5.5 alkyne]: in series [1], the “ke (total elimination rate constant)” value turned out to be 0.023 h⁻¹; the “Q (passive exchange with the medium)” value came out at 0.34 L/h × 10^−9; the “t1/2 (elimination half-life, ln(2)/ke)” value is recorded as 30.26 h; the “Comparison of passive exchange with the medium (Q) among compounds” value was “slowest one to be exchanged”. Moreover, the “Intra-fish distribution” value in series [2] (in vivo) is given as “rapidly distributed to the vasculature”.
For Sulfo-cyanine 3 alkyne [S-CY3A], in series [1], the “ke (total elimination rate constant)” value was 0.012 h⁻¹; the “Q (passive exchange with the medium)” value amounted to 0.23 L/h × 10^−9; the “t1/2 (elimination half-life, ln(2)/ke)” value worked out at 57.40 h. For the same molecule, in series [2] (in vivo), the “Intra-fish distribution” value is “rapidly distributed to the vasculature”.
Turning to Sulfo-cyanine 5 alkyne [S-CY5A], in series [1], the “ke (total elimination rate constant)” value was 0.014 h⁻¹; the “Q (passive exchange with the medium)” value is listed as 1.61 L/h × 10^−9; the “t1/2 (elimination half-life, ln(2)/ke)” value is on record as 50.41 h. In addition, in series [2] (in vivo), the “Intra-fish distribution” value is listed as “rapidly distributed to the vasculature”; the “Level and intra-body fluorescence distribution at 48 h, combination (immersion + PC) compared with PC microinjection” value was “altered”.
